Each compound was assayed against L-xylulose reductase (Homo sapiens) (UniProt Q7Z4W1).
Sequence of L-xylulose reductase (Homo sapiens) (Q7Z4W1 whole entry): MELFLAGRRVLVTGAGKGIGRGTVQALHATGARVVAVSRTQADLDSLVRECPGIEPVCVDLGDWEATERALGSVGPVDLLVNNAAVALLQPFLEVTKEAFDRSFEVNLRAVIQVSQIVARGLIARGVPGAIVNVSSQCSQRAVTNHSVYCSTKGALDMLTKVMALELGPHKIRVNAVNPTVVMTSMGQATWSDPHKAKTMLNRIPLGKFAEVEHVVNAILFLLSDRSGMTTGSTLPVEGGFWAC

| SMILES | Protein interaction energy |
| --- | --- |
| CCCOP(=O)(O)O | -87.4 kcal/M |
| CO[PH](O)(O)OCC(=O)O | -114 kcal/M |
| CCCc1ccc(O)cc1 | -26.9 kcal/M |
| O=C(O)CC(C(=O)O)C(=O)O | -163 kcal/M |
| CCC(C(=O)O)c1ccc(O)cc1 (stereo not given) | -51.6 kcal/M |

Second part, the compound after the results:

| Protein interaction energy | SMILES |
| --- | --- |
| -114 kcal/M | O=C(O)CCC(=O)O |
| -41.4 kcal/M | CCC(CO)C(=O)O (stereo not given) |
| -38.4 kcal/M | CCC(O)C(=O)O (stereo not given) |
| -40.4 kcal/M | CCCC(=O)O |

What follows are compounds tested against L-xylulose reductase (Homo sapiens) (UniProt Q7Z4W1) (assay: Protein interaction energy by using binding affinity towards human L-xylulose reductase enzyme).

| Protein interaction energy | SMILES |
| --- | --- |
| -86.7 kcal/M | CCC(C(=O)O)C(=O)O |

Source: ChEMBL document CHEMBL1136708, “Structure-based design of inhibitors of human L-xylulose reductase modelled into the active site of the enzyme” (Bioorg Med Chem Lett, 2003)
